Source: US20090215710A1, “CARBOHYDRATE BASED TOLL-LIKE RECEPTOR (TLR) ANTAGONISTS” (RELIANCE LIFE SCIENCES PVT. LTD., priority 2007, published 2009)

Key:
[1] = system: TNF-α; assay: TNF response to increasing concentration of LPS in THP-1 cells; type: cell-based, human; conditions: LPS 1000 ng/ml
Procedure: The present invention has also conducted experiments to check the ability of RSCL-0409 to inhibit LPS induced TNF-α secretion from THP-1 cells, wherein the studies involved the stimulation of THP-1 cells with increasing concentrations of LPS (62.5 ng/ml to 1000 ng/ml) with and without pre-treatment of cells with different concentrations of RSCL-0409.

[2] = system: NEMO and IκB-α; assay: Immunoblot of NEMO and IκB-α in LPS stimulated THP-1 cells; type: cell-based, human; conditions: THP-1, LPS 250 ng/ml
Procedure: NF-κB/IκB complexes are present in the cytoplasm under unstimulated conditions. Following stimulation with LPS, we see phosphorylation and subsequent degradation of IκB allowing the free NF-κB to translocate into the nucleus to activate genes with NF-κB binding regions. Therefore, the effect of RSCL-0409 on blocking of NF-κB nuclear translocation was checked. Serum-starved THP-1 cells were stimulated with LPS (250 ng/ml) for the indicated time (FIG. 7a) in the presence and absence of RSCL-0409 ([…]). RSCL-0409 treatment was 1 hr prior to LPS treatment. Total protein was isolated from the treated cells, and an equal amount of protein from each sample was used for immunoblots to determine protein levels of NEMO and IκB-α. The blot was stripped and reprobed with an anti-ERK-1/2 antibody to ensure equal loading. […] This leads to inhibition of phosphorylation and further blocking p65 dissociation from IκB-α.

[3] = system: IL-6 mRNA; assay: IL-6 mRNA expression in LPS stimulated THP-1 cells (real-time PCR); type: cell-based, human; conditions: THP-1, LPS 250 ng/ml 1 hr
Procedure: To determine whether the suppressive effect of RSCL-0409 on the cytokine production occurs at mRNA expression level, quantitative real-time PCR was used to examine TNF-α and IL-6 mRNA expression in THP-1 cells stimulated with LPS. THP-1 cells (3×10^6 cells/well) were stimulated with 250 ng/ml LPS in the presence or absence of RSCL-0409 at indicated concentrations for the 1 hr. Total RNA was isolated from these cells and cDNA was synthesized. LPS treated cells acted as positive control. All quantitative real-time PCR (TaqMan™) primers and probes were obtained from Applied Biosystems (ABI), Weiterstadt, Germany. For detection of TNF-α, pre-developed assay reagents (Universal master mix as obtained from Applied Biosystems included all reagents including Taq-polymerase apart from specific primers and probes) were used. The PCR was performed utilizing 1 μl cDNA per reaction in triplicates of 25 μl volume on an ABI 7500 Realtime PCR machine using a 2-step PCR protocol.
Quantization of mRNA was performed using the comparative threshold cycle method and analysed using standard software and expressed in fold change. The fold change of TNF-α (FIG. 5a) and IL-6 (FIG. 5b) mRNA in treated cells over control was obtained after correction for the amount of β-actin. […] The expression levels of both TNF and IL-6 decreased following 1 hr pretreatment with RSCL-0409 in the presence of LPS. […]

[4] = system: Balb/c mice; assay: LPS induced TNF-α release in Balb/c mice, treatment post LPS; type: in vivo; conditions: 30 min post LPS (225 μg i.p.)
Procedure: Here we have stimulated the inflammation process in mice with an injection of LPS (225 μg) intraperitoneally and 30 min post LPS, we have challenged the ability of RSCL-0409 (10 mg/kg, 20 mg/kg) to inhibit the TNF-α secretion.

[5] = Cell viability in pre-screen (Table 1); type: cell-based
[6] = system: TLR related genes (TIRAP, IRAK1, IRAK4, TRAF6, TRIF); assay: mRNA expression of TLR related genes in LPS stimulated THP-1 cells (PCR); type: cell-based, human; conditions: THP-1, LPS 250 ng/ml 1 hr
Procedure: Serum-starved THP-1 cells were stimulated with LPS (250 ng/ml) for 1 hr in the presence and absence of RSCL-0409. Total RNA was isolated from treated cells post LPS exposure. The cDNA was used for PCR against specific primers for the TLR related genes and β-actin was used as internal control.
To rule out the possibility of a TRIF dependent pathway, a MyD88 independent path, we have checked its expression levels also in the treated cells.

[7] = system: THP-1 cells; assay: MTT toxicity assay in THP-1 cells; type: cell-based, human
Source text: The toxicity of RSCL-0409 (FIG. 2b) was also by treating cells with RSCL-0409 by MTT assay. […] The viability of the cells (analyzed in tandem by MTT) was not affected by RSCL-0409 indicating its non-toxic nature.

[8] = biological target: T1, TLR4 (Homo sapiens, UniProt O00206); assay: TLR4 ligand induced TNF-α secretion in THP-1 cells and PBMCs (ELISA); type: cell-based; conditions: TLR4 ligand 750 ng/ml, 1 hr pre-treatment, 24 hrs
T1 construct: endogenous in cells; host or cells: THP-1 monocytes and PBMCs
T1 sequence (O00206 24-839): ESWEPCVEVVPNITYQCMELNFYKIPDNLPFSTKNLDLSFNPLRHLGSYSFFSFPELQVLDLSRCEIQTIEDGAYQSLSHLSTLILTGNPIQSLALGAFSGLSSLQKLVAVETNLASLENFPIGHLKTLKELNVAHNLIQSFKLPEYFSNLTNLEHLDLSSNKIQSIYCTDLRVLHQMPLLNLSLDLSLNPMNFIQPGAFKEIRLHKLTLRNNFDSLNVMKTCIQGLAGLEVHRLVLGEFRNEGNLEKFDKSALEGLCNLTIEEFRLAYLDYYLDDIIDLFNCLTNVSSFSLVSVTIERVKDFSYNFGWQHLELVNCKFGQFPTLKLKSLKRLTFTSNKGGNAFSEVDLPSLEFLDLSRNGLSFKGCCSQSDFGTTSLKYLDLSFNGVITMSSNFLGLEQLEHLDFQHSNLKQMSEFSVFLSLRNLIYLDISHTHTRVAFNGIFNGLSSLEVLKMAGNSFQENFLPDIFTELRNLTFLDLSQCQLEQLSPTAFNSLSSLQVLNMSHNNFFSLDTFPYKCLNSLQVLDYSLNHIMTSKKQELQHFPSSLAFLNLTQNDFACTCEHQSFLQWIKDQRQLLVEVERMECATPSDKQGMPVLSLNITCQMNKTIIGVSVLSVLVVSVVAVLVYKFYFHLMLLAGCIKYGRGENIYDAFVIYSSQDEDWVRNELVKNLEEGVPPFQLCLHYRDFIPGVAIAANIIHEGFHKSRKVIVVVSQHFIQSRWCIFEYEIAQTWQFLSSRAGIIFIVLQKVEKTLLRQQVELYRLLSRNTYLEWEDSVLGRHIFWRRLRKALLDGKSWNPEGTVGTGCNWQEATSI
T1 sequence (Q9Y6Y9 17-160 partner limits assumed): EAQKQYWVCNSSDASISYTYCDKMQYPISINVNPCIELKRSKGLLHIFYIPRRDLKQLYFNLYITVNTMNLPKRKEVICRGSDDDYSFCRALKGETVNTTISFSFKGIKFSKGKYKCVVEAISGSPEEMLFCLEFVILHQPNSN
Procedure: (§1) The present invention has checked the effect of various TLR ligands on THP-1 monocytes, PBMCs and their ability to activate and release TNF-α. For this purpose about 9 TLR ligands were used. These ligands were obtained from Apotech Cat; APO-54N-018-K100 and assayed for TNF-α release in culture supernatants.
(§2) THP-1 and PBMCs (2×10^5 cells/well) were plated in 96-well plate. The cells were pretreated with RSCL-0409 in DMSO 1 hr prior to TLR ligand treatment. Following 1 hr pre-treatment, the cells were treated with TLR ligands [TLR2, TLR5 and TLR6-75 ng/ml each, TLR3-75 μg/ml, TLR4-750 ng/ml, TLR7, TLR8 and TLR9-7.5 μg/ml) for 24 hrs. The culture supernatant were collected after the stipulated time and assayed for TNF-α release using a Duoset Enzyme-Linked ImmunoSorbent Assay (ELISA) detection Kit (R&D systems, MN 55413, USA; Cat: DY-210 E). Simultaneously supernatants were collected from cells treated with ligands without pre-treatment with RSCL-0409 and only RSCL-0409 without ligand treatment.

[9] = biological target: T2, TLR2 (Homo sapiens, UniProt O60603); assay: TLR2 ligand induced TNF-α secretion in THP-1 cells and PBMCs (ELISA); type: cell-based; conditions: TLR2 ligand 75 ng/ml, 1 hr pre-treatment, 24 hrs
T2 construct: endogenous in cells; host or cells: THP-1 monocytes and PBMCs
T2 sequence (O60603 21-784): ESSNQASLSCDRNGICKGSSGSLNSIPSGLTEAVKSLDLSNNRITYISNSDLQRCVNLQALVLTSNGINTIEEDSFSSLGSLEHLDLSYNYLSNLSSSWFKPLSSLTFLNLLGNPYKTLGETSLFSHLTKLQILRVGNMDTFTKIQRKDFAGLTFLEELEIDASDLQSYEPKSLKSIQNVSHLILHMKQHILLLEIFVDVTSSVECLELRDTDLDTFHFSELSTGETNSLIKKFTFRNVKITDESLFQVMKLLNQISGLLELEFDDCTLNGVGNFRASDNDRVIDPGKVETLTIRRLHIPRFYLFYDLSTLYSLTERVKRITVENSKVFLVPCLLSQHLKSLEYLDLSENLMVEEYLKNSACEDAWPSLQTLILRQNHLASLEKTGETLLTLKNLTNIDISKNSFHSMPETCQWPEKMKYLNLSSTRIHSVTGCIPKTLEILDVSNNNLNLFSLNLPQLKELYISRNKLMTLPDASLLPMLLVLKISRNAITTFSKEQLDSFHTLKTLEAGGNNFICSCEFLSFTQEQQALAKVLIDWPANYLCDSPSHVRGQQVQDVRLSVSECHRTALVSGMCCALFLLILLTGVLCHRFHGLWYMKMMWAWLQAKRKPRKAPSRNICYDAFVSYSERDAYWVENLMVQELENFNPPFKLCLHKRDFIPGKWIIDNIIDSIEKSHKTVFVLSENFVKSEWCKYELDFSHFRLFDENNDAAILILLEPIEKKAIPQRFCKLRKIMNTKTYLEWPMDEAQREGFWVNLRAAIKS
Procedure: as §1, §2

inhibition of TNF-α secretion ([8]; PBMCs): ~34% | inhibition of TNF-α secretion ([8]; THP-1 cells): ~100% | inhibition of TNF-α secretion ([9]; PBMC): ~46% | inhibition of TNF-α secretion ([9]; THP-1 cells): ~54%
Structure (SMILES): COc1ccc(OC2OC3COC(c4ccccc4)OC3C(OC3OC(COC(=O)CCC(C)=O)C(OC(=O)CCl)C(OC(C)=O)C3OC(C)=O)C2NC(=O)C(Cl)(Cl)Cl)cc1 [RSCL-0409, p-Methoxy phenyl-O-(2,3-di-O-acetyl-4-O-chloroacetyl-6-O-levulinoyl-β-D-glucopyranosyl)-(1-3)-2-deoxy-2-trichloroacetamido-4,6-O-benzylidene-α-D-glucopyranoside]
concentration inhibiting LPS induced TNF-α secretion (as low as) [1]: 10 µM | activation of NEMO [2]: blocked signaling to NEMO | degradation of IκB-α [2]: accumulation of IκB-α | IL-6 mRNA expression [3]: The same was observed with IL-6 also in a concentration dependent manner | inhibition of TNF secretion ([4]; 10 mg/kg): ~39% | inhibition of TNF secretion ([4]; 20 mg/kg): ~47% | % Viability ([5]; 1 uM): 108% | % Viability ([5]; 10 uM): 112% | % Viability ([5]; 50 uM): 114% | % Viability ([5]; 100 uM): 113% | TRIF mRNA levels [6]: remained unaffected | expression level of TRAF6 [6]: not down regulated significantly | mRNA expression levels of TIRAP, IRAK1 and IRAK4 [6]: inhibits the mRNA expression levels of TIRAP, IL-1R-associated kinase1 (IRAK1) and IRAK4 | viability of the cells (MTT) [7]: not affected
